For orientation: IC50 means the midpoint of a concentration-inhibition curve. Broadly, the inhibition is the percentage by which the read-out fell short of the control.

Three molecules from article PMC7795340, “First Synthesis of Racemic Trans Propargylamino-Donepezil, a Pleiotrope Agent Able to Both Inhibit AChE and MAO-B, with Potential Interest against Alzheimer’s Disease” (Molecules, 2020) can be followed below.

Assay [1] concerns the target (eq)BuChE (BuChE from equine serum) (Equus caballus, UniProt P81908). Kind of assay: (eq)BuChE inhibition, Ellman test. In kind it is biochemical. The settings on record: for inhibition at 1 µM: read-out: (eq)BuChE % Inhibition at 10^−6 M. How it is done:
. DPZ was used as a reference.
Inhibitory capacity of compounds on AChE biological activity was evaluated using the spectrometric method of Ellman. Acetyl- or butyrylthiocholine iodide and 5,5-dithiobis-(2-nitrobenzoic) acid (DTNB) were purchased from Sigma Aldrich. Lyophilized BuChE from equine serum (Sigma Aldrich) was dissolved in 0.2 M phosphate buffer pH 7.4 such as to have enzyme solutions stock with 2.5 units/mL enzyme activity. AChE from human erythrocytes (buffered aqueous solution, ≥500 units/mg protein (BCA), Sigma Aldrich) was diluted in 20 mM HEPES buffer pH 8, 0.1% Triton X-100 such as to have enzyme solution with 0.25 unit/mL enzyme activity. In the procedure, 100 μL of 0.3 mM DTNB dissolved in phosphate buffer pH 7.4 was added to the 96 wells plate followed by 50 μL of test compound solution and 50 μL of enzyme (0.05 U final). After 5 min of preincubation at 25 °C, the reaction was then initiated by the injection of 50 μL of 10 mM acetyl- or butyrylthiocholine iodide solution. The hydrolysis of acetyl- or butyrylthiocholine was monitored by the formation of yellow 5-thio-2-nitrobenzoate anion as the result of the reaction of DTNB with thiocholine, released by the enzymatic hydrolysis of acetyl- or butyrylthiocholine, at a wavelength of 412 nm using a 96-well microplate plate reader (TECAN Infinite M200, Lyon, France). […]. The rate of absorbance increase at 412 nm was followed every minute for 10 min. Assays were performed in simplicate during three independent tests, with a blank containing all components except acetyl- or butyrylthiocholine, in order to account for non-enzymatic reaction. The reaction slopes were compared, and the percent inhibition due to the presence of test compounds was calculated by the following expression: 100 − (vi/v0 × 100) where vi is the rate calculated in the presence of inhibitor and v0 is the enzyme activity.
First screening of AChE and BuChE activity was carried out at a 10^−6 or 10^−5 M concentration of compounds under study. […]

Assay [2] deals with T1, human recombinant MAO-B (Homo sapiens, UniProt P27338).
T1 construct: purchased Sigma Aldrich; host or cells: baculovirus infected insect cells (microsomes)
T1 sequence (P27338 1-520): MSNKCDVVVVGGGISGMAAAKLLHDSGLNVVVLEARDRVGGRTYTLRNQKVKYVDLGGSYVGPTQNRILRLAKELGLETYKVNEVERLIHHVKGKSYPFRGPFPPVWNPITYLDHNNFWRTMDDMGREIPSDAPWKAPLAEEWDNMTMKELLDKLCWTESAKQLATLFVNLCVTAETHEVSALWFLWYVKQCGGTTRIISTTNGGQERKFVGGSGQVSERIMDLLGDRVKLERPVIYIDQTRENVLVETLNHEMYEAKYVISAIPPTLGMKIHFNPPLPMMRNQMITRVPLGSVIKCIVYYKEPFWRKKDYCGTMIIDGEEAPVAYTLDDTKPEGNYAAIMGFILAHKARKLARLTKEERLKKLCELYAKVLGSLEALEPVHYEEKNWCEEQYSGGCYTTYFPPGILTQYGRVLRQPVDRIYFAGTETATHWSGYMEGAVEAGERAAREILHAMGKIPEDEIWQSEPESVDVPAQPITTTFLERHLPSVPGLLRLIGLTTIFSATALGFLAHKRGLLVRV
In words: (h)MAO-B inhibition, kynuramine fluorescence assay. The settings on record: kynuramine 50 µM; for inhibition at 10 µM: 10^−5 M; for IC50: (h)MAO-B IC50 (µM) (n = 3), mean ± SEM, n = 3. Type of assay: biochemical. As for the experimental part:
(§1) Inhibition of human recombinant monoamine oxidases A (250 U/mg) and B (59 U/mg; microsomes from baculovirus infected insect cells; Sigma Aldrich) was determined as already described, measuring the fluorescence of 4-hydroxyquinoline (exc. 310 nm; em. 400 nm) produced by MAOs in the oxidative deamination of substrate kynuramine. […] Assays were performed in triplicate during three independent tests, in 96-well black polystyrene plates (Greiner Bio-One, Kremsmünster, Austria) using an Infinite M1000 Pro plate reader (Tecan, Cernusco s.N., Italy).

For assay [3], the target named is T2, human recombinant MAO-A (Homo sapiens, UniProt P21397).
T2 construct: purchased Sigma Aldrich; host or cells: baculovirus infected insect cells (microsomes)
T2 sequence (P21397 1-527): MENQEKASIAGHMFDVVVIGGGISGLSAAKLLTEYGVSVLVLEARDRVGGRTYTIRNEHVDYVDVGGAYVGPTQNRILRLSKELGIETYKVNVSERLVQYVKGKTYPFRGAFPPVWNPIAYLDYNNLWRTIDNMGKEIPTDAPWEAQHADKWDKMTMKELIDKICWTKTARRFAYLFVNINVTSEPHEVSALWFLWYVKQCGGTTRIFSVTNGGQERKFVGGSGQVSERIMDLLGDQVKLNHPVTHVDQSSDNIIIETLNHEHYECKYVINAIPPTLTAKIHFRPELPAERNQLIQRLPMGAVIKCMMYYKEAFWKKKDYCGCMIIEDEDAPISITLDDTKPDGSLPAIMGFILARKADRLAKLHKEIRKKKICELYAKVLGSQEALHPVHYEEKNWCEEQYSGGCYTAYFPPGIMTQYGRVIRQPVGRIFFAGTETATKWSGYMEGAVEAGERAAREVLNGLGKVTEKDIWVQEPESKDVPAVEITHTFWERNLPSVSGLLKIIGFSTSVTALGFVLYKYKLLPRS
In words: (h)MAO-A inhibition, kynuramine fluorescence assay. Type of assay: biochemical. Conditions: 10^−5 M; kynuramine 50 µM. How it is done: as §1

Assay [4] concerns the target (h)AChE (AChE from human erythrocytes) (Homo sapiens, UniProt P22303). Kind of assay: biochemical. Conditions: for inhibition at 1 µM: read-out: (h)AChE % Inhibition at 10^−6 M. As for the experimental part: DPZ was used as a reference.
Inhibitory capacity of compounds on AChE biological activity was evaluated using the spectrometric method of Ellman. Acetyl- or butyrylthiocholine iodide and 5,5-dithiobis-(2-nitrobenzoic) acid (DTNB) were purchased from Sigma Aldrich. Lyophilized BuChE from equine serum (Sigma Aldrich) was dissolved in 0.2 M phosphate buffer pH 7.4 such as to have enzyme solutions stock with 2.5 units/mL enzyme activity. AChE from human erythrocytes (buffered aqueous solution, ≥500 units/mg protein (BCA), Sigma Aldrich) was diluted in 20 mM HEPES buffer pH 8, 0.1% Triton X-100 such as to have enzyme solution with 0.25 unit/mL enzyme activity. In the procedure, 100 μL of 0.3 mM DTNB dissolved in phosphate buffer pH 7.4 was added to the 96 wells plate followed by 50 μL of test compound solution and 50 μL of enzyme (0.05 U final). After 5 min of preincubation at 25 °C, the reaction was then initiated by the injection of 50 μL of 10 mM acetyl- or butyrylthiocholine iodide solution. […] Assays were performed in simplicate during three independent tests, with a blank containing all components except acetyl- or butyrylthiocholine, in order to account for non-enzymatic reaction. The reaction slopes were compared, and the percent inhibition due to the presence of test compounds was calculated by the following expression: 100 − (vi/v0 × 100) where vi is the rate calculated in the presence of inhibitor and v0 is the enzyme activity.

“And” between values parts separate entries of the source, which are not always exact repeats. Equal values may be shown once. Read-outs that look alike come from different tables or passages of the source.

(eq)BuChE (BuChE from equine serum), sequence (P81908 whole entry): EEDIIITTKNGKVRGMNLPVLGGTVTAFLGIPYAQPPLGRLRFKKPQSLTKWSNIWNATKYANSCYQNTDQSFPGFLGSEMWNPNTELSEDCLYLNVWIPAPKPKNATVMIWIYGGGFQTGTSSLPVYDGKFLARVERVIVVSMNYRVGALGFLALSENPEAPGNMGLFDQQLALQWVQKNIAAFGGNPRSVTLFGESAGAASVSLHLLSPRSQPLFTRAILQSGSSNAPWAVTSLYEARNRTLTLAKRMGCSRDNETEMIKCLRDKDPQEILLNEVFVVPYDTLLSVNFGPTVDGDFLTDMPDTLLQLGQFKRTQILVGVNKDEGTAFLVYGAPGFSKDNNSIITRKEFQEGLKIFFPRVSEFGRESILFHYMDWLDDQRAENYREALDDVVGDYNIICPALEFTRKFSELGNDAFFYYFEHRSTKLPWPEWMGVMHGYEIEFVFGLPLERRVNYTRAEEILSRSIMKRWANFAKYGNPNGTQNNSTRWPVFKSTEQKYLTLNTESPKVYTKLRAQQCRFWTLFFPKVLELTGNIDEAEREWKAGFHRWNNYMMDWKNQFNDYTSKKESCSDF
(h)AChE (AChE from human erythrocytes), sequence (P22303 other isoform, or with tags, fused parts or gaps): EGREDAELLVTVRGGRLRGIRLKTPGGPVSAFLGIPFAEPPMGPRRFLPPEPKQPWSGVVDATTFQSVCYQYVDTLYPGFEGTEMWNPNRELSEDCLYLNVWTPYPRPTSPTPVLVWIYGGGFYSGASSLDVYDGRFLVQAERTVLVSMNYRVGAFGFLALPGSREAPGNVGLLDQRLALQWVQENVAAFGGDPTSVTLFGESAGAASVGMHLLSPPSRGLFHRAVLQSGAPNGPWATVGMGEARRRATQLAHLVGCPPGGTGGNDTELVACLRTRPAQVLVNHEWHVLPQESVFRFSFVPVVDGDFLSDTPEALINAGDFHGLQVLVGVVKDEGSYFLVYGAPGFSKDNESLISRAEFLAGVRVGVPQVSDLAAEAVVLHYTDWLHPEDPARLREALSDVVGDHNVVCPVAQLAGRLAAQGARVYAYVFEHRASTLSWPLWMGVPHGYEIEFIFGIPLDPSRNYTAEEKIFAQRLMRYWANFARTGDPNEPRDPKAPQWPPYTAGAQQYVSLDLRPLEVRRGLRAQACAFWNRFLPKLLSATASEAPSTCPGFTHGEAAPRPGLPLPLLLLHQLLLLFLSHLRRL

For the molecule `C#CCN[C@@H]1c2cc(OC)c(OC)cc2C(=O)[C@H]1CC1CCN(Cc2ccccc2)CC1` (relative stereo) [Trans-PADPZ (19), Trans 2-[(1-Benzyl-4-piperidyl)methyl]-5,6-dimethoxy-3-(prop-2-ynylamino)indan-1-one], the half-inhibitory concentration (IC50) is 4.23 ± 0.375 µM in assay [1] ((eq)BuChE IC50 (µM) (n = 3), mean ± SEM, n = 3); 6.4 µM and 6.43 µM in assay [2]; 0.4 µM and 0.442 µM in assay [4] ((h)AChE IC50 (µM) (n = 3), mean ± SEM, n = 3); 0.44 µM in assay [4] (value in nM, read-out: (h)AChE IC50). In addition, the inhibition at 1 µM in assay [1] was 74%; in assay [4], 71%. The inhibition at 10 µM in assay [2] is 52%; in assay [3] it was 13%. In addition, the “relative selectivity: BuChE inhibited at a concentration fold greater than AChE” value in assay [4] (BuChE IC50 vs (h)AChE IC50) is given as 10 fold.

Consider `C#CCNC1CC(=O)c2cc(OC)c(OC)cc21` (centres unmarked) [Compound 5, 5,6-Dimethoxy-3-(prop-2-ynylamino)indan-1-one], for which, in assay [2], the inhibition at 10 µM was found to be 45% and the IC50 is 13.4 ± 3.4 µM. In addition, in assay [3], the inhibition at 10 µM is < 10%.

For `COc1cc2c(cc1OC)C(NC(C)=O)C(CC1CCN(Cc3ccccc3)CC1)C2=O` (centres unmarked) [Compound 16], the inhibition at 1 µM is 39% in assay [1] and 4% in assay [4].
